The values that follow come from patent US6399542B1, “Alkoxyimino-substituted bicyclic compounds compositions containing the same and method of making such compounds” (Agro-Kanesho Co., Ltd., priority 1997, dated 2002).

Holding throughout (type): in vivo
One test has as its system Erysiphe graminis. Nature of the test: Effects on Barley powdery mildew (preventive spray test). The conditions noted are these: lesions counted seven days after inoculation.
A further test deals with Puccinia recondita. Nature of the test: Effect on Wheat brown rust (preventive spray test). The conditions noted are these: 7 days after inoculation.
The subject of the next test is Pyricularia oryzae. The note with it: Rice blast, 7 days after inoculation.
The test system of test [1] is Psecidoperonospora cubensis. Description: Effect on Cucumber downy mildew (preventive spray test). The note with it: 7 days after inoculation.
In another test the test system is Chochliobolus miyabeanus. Description: Effect on Rice brown spot (preventive spray test). The note with it: 7 days after inoculation.
A further test deals with Phytophthora infestans. The conditions noted are these: Tomato late blight, 5 days after inoculation.
The mark [2] stands for this setting: conc. of active ingredient 4 ppm.
Setting [3] is: conc. of active ingredient 20 ppm.
Setting [4] is: conc. of active ingredient 100 ppm.

“And” between values parts separate entries of the source, which are not always exact repeats. Identical values can stand only once. Like-named read-outs stand apart in the source and are kept apart here.

In the case of `COC=C(C(=O)OC)c1ccccc1COc1ccc2c(c1C)OC(C)CC2=NOC` (racemic) [d-8], the “Preventive rate (%)” value with Erysiphe graminis (setting [2]), in the test with Erysiphe graminis (setting [3]), in the test on Erysiphe graminis (setting [4]), in the test on Puccinia recondita (setting [2]), in the test with Puccinia recondita (setting [3]) and in the test on Puccinia recondita (setting [4]) was 100% in each case. The figures for the “Preventive rate (%)” value in the test with Pyricularia oryzae (setting [2]), in the test with Pyricularia oryzae (setting [3]) and in the test with Pyricularia oryzae (setting [4]) were 77%, 83% and 100%, respectively.
For the compound `CNC(=O)C(=NOC)c1ccccc1COc1ccc2c(c1C)CC(C)C2=NOC` (racemic) [f-4], the “Preventive rate (%)” value in test [1] (setting [2]) is given as 100%; in test [1] (setting [3]), 100%; in test [1] (setting [4]), 100%; in the test on Chochliobolus miyabeanus (setting [2]), 68%; in the test with Chochliobolus miyabeanus (setting [3]) it was 70%; in the test on Chochliobolus miyabeanus (setting [4]), 90%.
`CO/C=C(/C(=O)OC)c1ccccc1COc1ccc2c(c1C)OC(C)C2=NOC` (single isomer, unassigned) [b-4]: the “Preventive rate (%)” value in the test on Erysiphe graminis (setting [2]) worked out at 98%; with Erysiphe graminis (setting [3]), 100%; in the test on Erysiphe graminis (setting [4]), 100%; in the test on Puccinia recondita (setting [2]), 100%; with Puccinia recondita (setting [3]), 100%; in the test with Puccinia recondita (setting [4]) it was 100%. The “Preventive rate (%)” value in the test with Phytophthora infestans (setting [3]) is listed as 97%; in the test with Phytophthora infestans (setting [4]), 97%; in the test on Pyricularia oryzae (setting [3]) it was 89%; in the test with Pyricularia oryzae (setting [4]), 95%.
On to `CO/C=C(/C(=O)OC)c1ccccc1COc1ccc2c(c1C)OC(C)C2=NOC` (single isomer, unassigned) [b-5], for which the “Preventive rate (%)” value amounted to 98% in the test on Erysiphe graminis (setting [2]); 98% with Erysiphe graminis (setting [3]); 100% in the test with Erysiphe graminis (setting [4]); 100% with Puccinia recondita (setting [2]); 100% in the test on Puccinia recondita (setting [3]); 100% with Puccinia recondita (setting [4]). Moreover, the “Preventive rate (%)” value with Phytophthora infestans (setting [3]) is on record as 91%; in the test with Phytophthora infestans (setting [4]), 97%; with Pyricularia oryzae (setting [3]), 84%; in the test on Pyricularia oryzae (setting [4]), 95%.
On to `CON=C(C(=O)OC)c1ccccc1COc1cc2c(cc1C)C(=NOC)C(C)C2` (single isomer, unassigned) [f-10], for which the “Preventive rate (%)” value is reported as 97% in the test with Phytophthora infestans (setting [3]); 98% in the test with Phytophthora infestans (setting [4]); 100% in test [1] (setting [4]); 85% in the test on Pyricularia oryzae (setting [2]); 85% in the test on Pyricularia oryzae (setting [3]); 90% in the test with Pyricularia oryzae (setting [4]).
`CNC(=O)C(=NOC)c1ccccc1COc1cc2c(cc1C)C(=NOC)C(C)C2` (single isomer, unassigned) [f-11]: the “Preventive rate (%)” value with Erysiphe graminis (setting [2]), in the test on Erysiphe graminis (setting [3]), with Erysiphe graminis (setting [4]), in the test on Puccinia recondita (setting [2]), in the test on Puccinia recondita (setting [3]) and with Puccinia recondita (setting [4]) was 100% throughout. Besides, the “Preventive rate (%)” value (with Phytophthora infestans (setting [2]); in the test on Phytophthora infestans (setting [3]); in the test with Phytophthora infestans (setting [4]); in test [1] (setting [2]); in test [1] (setting [3]); in test [1] (setting [4])) was 100% throughout. Further, the “Preventive rate (%)” value came out at 72% in the test with Pyricularia oryzae (setting [2]), 83% in the test with Pyricularia oryzae (setting [3]) and 100% in the test on Pyricularia oryzae (setting [4]).
Take `CCON=C1COc2c1ccc(OCc1ccccc1/C(=N\OC)C(=O)NC)c2C` [a-36]: the “Preventive rate (%)” value in the test with Puccinia recondita (setting [2]) stood at 100%; in the test with Puccinia recondita (setting [3]), 100%; in the test on Puccinia recondita (setting [4]) it was 100%; in the test with Phytophthora infestans (setting [3]), 91%; with Phytophthora infestans (setting [4]), 98%; in test [1] (setting [3]), 100%. For the same compound, the “Preventive rate (%)” value in test [1] (setting [4]) was 100%; with Pyricularia oryzae (setting [3]), 90%; in the test on Pyricularia oryzae (setting [4]), 99%; in the test on Chochliobolus miyabeanus (setting [2]), 69%; with Chochliobolus miyabeanus (setting [3]), 93%; in the test with Chochliobolus miyabeanus (setting [4]) it was 96%.
For the compound `C=CCON=C1COc2c1ccc(OCc1ccccc1/C(=N\OC)C(=O)NC)c2C` [a-60], the “Preventive rate (%)” value in the test on Erysiphe graminis (setting [3]) was determined as 100%; with Erysiphe graminis (setting [4]) it was 100%; in the test on Puccinia recondita (setting [2]), 100%; in the test with Puccinia recondita (setting [3]), 100%; in the test on Puccinia recondita (setting [4]), 100%; in the test on Phytophthora infestans (setting [3]), 97%. Further, the “Preventive rate (%)” value in the test with Phytophthora infestans (setting [4]) is listed as 97%; in test [1] (setting [2]) it was 100%; in test [1] (setting [3]) it was 100%; in test [1] (setting [4]) it was 100%; in the test on Pyricularia oryzae (setting [3]), 86%; with Pyricularia oryzae (setting [4]) it was 91%.
For the compound `C=C(Cl)CON=C1COc2c1ccc(OCc1ccccc1/C(=N\OC)C(=O)NC)c2C` [a-64], the “Preventive rate (%)” value in the test with Erysiphe graminis (setting [2]) is given as 94%; in the test with Erysiphe graminis (setting [3]) it was 98%; with Erysiphe graminis (setting [4]) it was 100%; with Puccinia recondita (setting [2]) it was 100%; in the test with Puccinia recondita (setting [3]), 100%; with Puccinia recondita (setting [4]), 100%. Moreover, the “Preventive rate (%)” value with Phytophthora infestans (setting [3]) was determined as 84%; in the test with Phytophthora infestans (setting [4]) it was 100%; in test [1] (setting [2]), 100%; in test [1] (setting [3]), 100%; in test [1] (setting [4]), 100%.
In the case of `CON=C1c2ccc(OCc3ccccc3/C(=N\OC)C(=O)OC)c(C)c2OC1C` (centres unmarked) [b-6], the “Preventive rate (%)” value with Erysiphe graminis (setting [3]) is reported as 89%; in the test with Erysiphe graminis (setting [4]) it was 90%; in the test with Phytophthora infestans (setting [3]) it was 92%; in the test on Phytophthora infestans (setting [4]) it was 94%; in test [1] (setting [3]), 100%; in test [1] (setting [4]) it was 100%. For the same compound, the “Preventive rate (%)” value is on record as 84% in the test on Pyricularia oryzae (setting [3]), 88% in the test on Pyricularia oryzae (setting [4]), 70% with Chochliobolus miyabeanus (setting [3]) and 90% in the test with Chochliobolus miyabeanus (setting [4]).
`CO/C=C(/C(=O)OC)c1ccccc1COc1ccc2c(c1)OCCC2=NOC` [c-2]: the “Preventive rate (%)” value came to 100% in the test on Erysiphe graminis (setting [3]); 100% in the test with Erysiphe graminis (setting [4]); 93% in the test with Puccinia recondita (setting [2]); 100% in the test on Puccinia recondita (setting [3]); 100% in the test with Puccinia recondita (setting [4]); 84% in the test with Phytophthora infestans (setting [2]). Also, the “Preventive rate (%)” value is listed as 98% with Phytophthora infestans (setting [3]), 98% in the test with Phytophthora infestans (setting [4]), 97% in test [1] (setting [3]) and 100% in test [1] (setting [4]).
In the case of `CNC(=O)C(=NOC)c1ccccc1COc1ccc2c(c1C)OCCC2=NOCC=CCl` [c-62], the “Preventive rate (%)” value was found to be 96% with Erysiphe graminis (setting [2]); 100% in the test on Erysiphe graminis (setting [3]); 100% in the test with Erysiphe graminis (setting [4]); 100% in the test with Puccinia recondita (setting [2]); 100% with Puccinia recondita (setting [3]); 100% in the test with Puccinia recondita (setting [4]). In addition, the “Preventive rate (%)” value with Phytophthora infestans (setting [3]) and in the test on Phytophthora infestans (setting [4]) was 100% in each case.
Take `C=C(Cl)CON=C1CCOc2c1ccc(OCc1ccccc1C(=NOC)C(=O)NC)c2C` [c-64]: the “Preventive rate (%)” value was 96% with Erysiphe graminis (setting [3]); 100% in the test on Erysiphe graminis (setting [4]); 99% in the test with Puccinia recondita (setting [2]); 99% in the test with Puccinia recondita (setting [3]); 100% in the test on Puccinia recondita (setting [4]); 80% in the test with Pyricularia oryzae (setting [3]). Also, in the test on Pyricularia oryzae (setting [4]), the “Preventive rate (%)” value is listed as 98%.
Regarding `CON=C(C(=O)OC)c1ccccc1COc1ccc2c(c1C)OC(C)(C)CC2=NOC` [d-6], the “Preventive rate (%)” value was found to be 92% in the test with Puccinia recondita (setting [3]); 99% in the test with Puccinia recondita (setting [4]); 71% in the test with Pyricularia oryzae (setting [2]); 77% in the test on Pyricularia oryzae (setting [3]); 92% in the test on Pyricularia oryzae (setting [4]).
Take `COC=C(C(=O)OC)c1ccccc1COc1ccc2c(c1)CCC2=NO` [e-1]: the “Preventive rate (%)” value in the test on Chochliobolus miyabeanus (setting [2]) was determined as 87%.
Consider `CON=C1CCc2cc(OCc3ccccc3C(=NOC)C(=O)OC)c(C)cc21` [e-26], for which the “Preventive rate (%)” value worked out at 100% in the test with Erysiphe graminis (setting [3]); 100% with Erysiphe graminis (setting [4]); 98% in the test on Puccinia recondita (setting [3]); 98% in the test on Puccinia recondita (setting [4]); 97% in the test on Phytophthora infestans (setting [3]); 100% with Phytophthora infestans (setting [4]). Further, the “Preventive rate (%)” value was 75% in test [1] (setting [2]); 100% in test [1] (setting [3]); 100% in test [1] (setting [4]); 71% with Chochliobolus miyabeanus (setting [3]); 91% in the test on Chochliobolus miyabeanus (setting [4]).
Turning to `CNC(=O)C(=NOC)c1ccccc1COc1ccc2c(c1)CCC2=NOCC=CCl` [e-58], the “Preventive rate (%)” value in the test with Erysiphe graminis (setting [3]) was 100%; with Erysiphe graminis (setting [4]), 100%; with Puccinia recondita (setting [3]), 100%; with Puccinia recondita (setting [4]) it was 100%; in the test with Phytophthora infestans (setting [3]), 92% and 98%; with Phytophthora infestans (setting [4]) it was 100%. Also, the “Preventive rate (%)” value in test [1] (setting [2]), in test [1] (setting [3]) and in test [1] (setting [4]) was 100% throughout.
In the case of `C#CCON=C1CCc2c1ccc(OCc1ccccc1C(=NOC)C(=O)NC)c2C` [e-61], the “Preventive rate (%)” value in the test on Erysiphe graminis (setting [3]) worked out at 98%; with Puccinia recondita (setting [2]) it was 100%; with Puccinia recondita (setting [3]), 100%; with Puccinia recondita (setting [4]) it was 100%; in the test with Phytophthora infestans (setting [3]), 98%; with Phytophthora infestans (setting [4]) it was 100%. Further, the “Preventive rate (%)” value worked out at 100% in test [1] (setting [2]); 100% in test [1] (setting [3]); 100% in test [1] (setting [4]); 84% in the test with Chochliobolus miyabeanus (setting [2]); 90% in the test with Chochliobolus miyabeanus (setting [3]); 90% in the test with Chochliobolus miyabeanus (setting [4]).
